Data: patent US11466028B2, “Fused 1,4-oxazepines as BET protein degraders” (THE REGENTS OF THE UNIVERSITY OF MICHIGAN, priority 2016, dated 2022)

Key:
Assay type in all cases: cell-based
MOLM-13 = experiment: CellTiter-Glo cell growth inhibition, MOLM-13; settings: Homo sapiens, MOLM-13, 96 h, 4 days, Table 4, read-out: MOLM-13 IC50
Protocol: (§1) Cell growth inhibitory activity of representative Compounds of the Disclosure was determined using the CellTiter-Glo® Luminescent Cell Viability Assay. Cells were seeded in 384-well white opaque cell culture plates at a density of 2,000 cells/well with serially diluted compounds and incubated at 37° C. in an atmosphere of 95% air and 5% CO2 for 4 days. Cell viability was determined using the CellTiter-Glo® Luminescent Cell Viability Assay Kit (Promega, Madison, Wis.) according to the manufacture's instruction. Briefly, a volume of CellTiter-Glo® Reagent equal to the volume of cell culture medium was added to each well, and then the plates were incubated at room temperature for 10-20 minutes. The luminescent signal was measured using a Tecan Infinite M1000 multimode microplate reader (Tecan, Morrisville, N.C.). The half maximal inhibitory concentration (IC50) was calculated using the GraphPad Prism 5 software (GraphPad Software, La Jolla, Calif.).
(§2) Cpd. Nos. 18 and 19 were tested in various leukemia cell lines using the CellTiter-Glo® Luminescent Cell Viability Assay as described in Example 35.

MDA-MB-231 = experiment: CellTiter-Glo cell growth inhibition, MDA-MB-231; settings: Homo sapiens, MDA-MB-231, 96 h, 4 days, Table 4
Protocol: as §1

RS4;11 = experiment: CellTiter-Glo cell growth inhibition, RS4;11; settings: Homo sapiens, RS4-11, 96 h, 4 days, Table 4, read-out: RS-4, 11 IC50
Protocol: as §1, §2

Row | SMILES | IC50 (MOLM-13) | IC50 (MDA-MB-231) | IC50 (RS4;11)
1 | Cc1nnc2n1-c1sc(C#CCOCCNc3cccc4c3C(=O)N(C3CCC(=O)NC3=O)C4=O)c(Cc3ccccc3)c1CO[C@H]2C (stereo partly drawn) [Cpd. No. 1, 4-((2-((3-((S)-3-benzyl-6,9-dimethyl-4H,6H-thieno[2,3-e][1,2,4]triazolo[3,4-c][1,4]oxazepin-2-yl)prop-2-yn-1-yl)oxy)ethyl)amino)-2-(2,6-dioxopiperidin-3-yl) isoindoline-1,3-dione] | 804 nM | 1700 nM | –
2 | Cc1nnc2n1-c1sc(C#CCOCCOCCOc3cccc4c3C(=O)N(C3CCC(=O)NC3=O)C4=O)c(Cc3ccccc3)c1CO[C@H]2C (stereo partly drawn) [Cpd. No. 2, 4-(2-(2-((3-((S)-3-benzyl-6,9-dimethyl-4H,6H-thieno-[2,3-e][1,2,4]triazolo[3,4-c][1,4]oxazepin-2-yl)prop-2-yn-1-yl)oxy)ethoxy)ethoxy)-2-(2,6-dioxopiperidin-3-yl)isoindoline-1,3-dione] | 34.6 nM | 223 nM | –
3 | Cc1nnc2n1-c1sc(C#Cc3cnn(CCNc4cccc5c4C(=O)N(C4CCC(=O)NC4=O)C5=O)c3)c(Cc3ccccc3)c1CO[C@H]2C (stereo partly drawn) [Cpd. No. 6, 4-((2-(4-(((S)-3-benzyl-6,9-dimethyl-4H,6H-thieno[2,3-e][1,2,4]triazolo[3,4-c][1,4]oxazepin-2-yl)ethynyl)-1H-pyrazol-1-yl)ethyl)amino)-2-(2,6-dioxopiperidin-3-yl)isoindoline-1,3-dione] | 60 nM | 64 nM | –
4 | Cc1nnc2n1-c1sc(C#Cc3ccc(CNc4cccc5c4C(=O)N(C4CCC(=O)NC4=O)C5=O)nc3)c(Cc3ccccc3)c1CO[C@H]2C (stereo partly drawn) [Cpd. No. 8, 4-(((5-(((S)-3-benzyl-6,9-dimethyl-4H,6H-thieno[2,3-e][1,2,4]triazolo[3,4-c][1,4]oxazepin-2-yl)ethynyl)pyridin-2-yl)methyl)amino)-2-(2,6-dioxopiperidin-3-yl) isoindoline-1,3-dione] | 118 nM | 1490 nM | –
5 | Cc1nnc2n1-c1sc(C#Cc3cnc(CCCC#Cc4cccc5c4C(=O)N(C4CCC(=O)NC4=O)C5=O)[nH]3)c(Cc3ccccc3)c1CO[C@H]2C (stereo partly drawn) [Cpd. No. 12, 4-(5-(5-(((S)-3-benzyl-6,9-dimethyl-4H,6H-thieno[2,3-e][1,2,4]triazolo[3,4-c][1,4]oxazepin-2-yl)ethynyl)-1H-imidazol-2-yl)pent-1-yn-1-yl)-2-(2,6-dioxopiperidin-3-yl)isoindoline-1,3-dione] | > 1000 nM | > 1000 nM | > 1000 nM
6 | Cc1nnc2n1-c1sc(C#Cc3cn(CCCCNc4cccc5c4CN(C4CCC(=O)NC4=O)C5=O)cn3)c(Cc3ccccc3)c1CO[C@H]2C (stereo partly drawn) [Cpd. No. 13, 3-(4-((4-(4-(((S)-3-benzyl-6,9-dimethyl-4H,6H-thieno[2,3-e][1,2,4]triazolo[3,4-c][1,4]oxazepin-2-yl)ethynyl)-1H-imidazol-1-yl)butyl)amino)-1-oxoisoindolin-2-yl)piperidine-2,6-dione] | 20 nM | 58 nM | 1.8 nM
7 | Cc1nnc2n1-c1sc(C#Cc3cnn(CCCC#Cc4cccc5c4C(=O)N(C4CCC(=O)NC4=O)C5=O)c3)c(Cc3ccccc3)c1CO[C@H]2C (stereo partly drawn) [Cpd. No. 14, 4-(5-(4-(((S)-3-benzyl-6,9-dimethyl-4H,6H-thieno[2,3-e][1,2,4]triazolo[3,4-c][1,4]oxazepin-2-yl)ethynyl)-1H-pyrazol-1-yl)pent-1-yn-1-yl)-2-(2,6-dioxopiperidin-3-yl)isoindoline-1,3-dione] | 8.7 nM | 9.3 nM | 0.43 nM
8 | Cc1nnc2n1-c1sc(C#Cc3cnc(CCCC#Cc4cccc5c4CN(C4CCC(=O)NC4=O)C5=O)n3C)c(Cc3ccccc3)c1CO[C@H]2C (stereo partly drawn) [Cpd. No. 15, 3-(4-(5-(5-(((S)-3-benzyl-6,9-dimethyl-4H,6H-thieno[2,3-e][1,2,4]triazolo[3,4-c][1,4]oxazepin-2-yl)ethynyl)-1-methyl-1H-imidazol-2-yl)pent-1-yn-1-yl)-1-oxoisoindolin-2-yl)piperidine-2,6-dione] | 7.5 nM | 25 nM | 0.2 nM
9 | Cc1nnc2n1-c1sc(C#Cc3cn(CCCC#Cc4cccc5c4CN(C4CCC(=O)NC4=O)C5=O)cn3)c(Cc3ccccc3)c1CO[C@H]2C (stereo partly drawn) [Cpd. No. 20, 3-(4-(5-(4-(((S)-3-benzyl-6,9-dimethyl-4H,6H-thieno[2,3-e][1,2,4]triazolo[3,4-c][1,4]oxazepin-2-yl)ethynyl)-1H-imidazol-1-yl)pent-1-yn-1-yl)-1-oxoisoindolin-2-yl)piperidine-2,6-dione] | 3.8 nM | 16 nM | 0.7 nM
10 | Cc1nnc2n1-c1sc(C#Cc3cnn(CCCCOc4cccc5c4C(=O)N(C4CCC(=O)NC4=O)C5=O)c3)c(Cc3ccccc3)c1COC2 (stereo not drawn) [Cpd. No. 45, 4-(4-(4-((3-benzyl-9-methyl-4H,6H-thieno[2,3-e][1,2,4]triazolo[3,4-c][1,4]oxazepin-2-yl)ethynyl)-1H-pyrazol-1-yl)butoxy)-2-(2,6-dioxopiperidin-3-yl) isoindoline-1,3-dione] | 3.2 nM | 3.2 nM | < 0.1 nM
11 | Cc1nnc2n1-c1sc(C#Cc3cnn(CCCC#Cc4cccc5c4C(=O)N(C4CCC(=O)NC4=O)C5=O)c3)c(Cc3ccccc3)c1COC2 (stereo not drawn) [Cpd. No. 49, 4-(5-(4-((3-benzyl-9-methyl-4H,6H-thieno[2,3-e][1,2,4]triazolo[3,4-c][1,4]oxazepin-2-yl)ethynyl)-1H-pyrazol-1-yl)pent-1-yn-1-yl)-2-(2,6-dioxopiperidin-3-yl)isoindoline-1,3-dione] | 9.6 nM | 5.5 nM | 0.56 nM

The next compounds have a lower IC50 (MOLM-13) than those just listed; values first:

Row | IC50 (MOLM-13) | IC50 (MDA-MB-231) | IC50 (RS4;11) | SMILES
12 | 2.6 nM | 49 nM | – | Cc1nnc2n1-c1sc(C#CCOCCOCCNc3cccc4c3C(=O)N(C3CCC(=O)NC3=O)C4=O)c(Cc3ccccc3)c1CO[C@H]2C (stereo partly drawn) [Cpd. No. 3, 4-((2-(2-((3-((S)-3-benzyl-6,9-dimethyl-4H,6H-thieno[2,3-e][1,2,4]triazolo[3,4-c][1,4]oxazepin-2-yl)prop-2-yn-1-yl)oxy)ethoxy)ethyl)amino)-2-(2,6-dioxopiperidin-3-yl)isoindoline-1,3-dione]
13 | 0.8 nM | 12.8 nM | – | Cc1nnc2n1-c1sc(C#CCOCCOCCOCCNc3cccc4c3C(=O)N(C3CCC(=O)NC3=O)C4=O)c(Cc3ccccc3)c1CO[C@H]2C (stereo partly drawn) [Cpd. No. 4, 4-((2-(2-(2-((3-((S)-3-benzyl-6,9-dimethyl-4H,6H-thieno[2,3-e][1,2,4]triazolo[3,4-c][1,4]oxazepin-2-yl)prop-2-yn-1-yl)oxy)ethoxy)ethoxy)ethyl)amino)-2-(2,6-dioxopiperidin-3-yl)isoindoline-1,3-dione]
14 | 0.7 nM | 6.1 nM | – | Cc1nnc2n1-c1sc(C#CCOCCOCCOCCOCCNc3cccc4c3C(=O)N(C3CCC(=O)NC3=O)C4=O)c(Cc3ccccc3)c1CO[C@H]2C (stereo partly drawn) [Cpd. No. 5, 4-((15-((S)-3-benzyl-6,9-dimethyl-4H,6H-thieno[2,3-e][1,2,4]triazolo[3,4-c][1,4]oxazepin-2-yl)-3,6,9,12-tetraoxapentadec-14-yn-1-yl)amino)-2-(2,6-dioxopiperidin-3-yl)isoindoline-1,3-dione]
15 | 1.1 nM | 4.7 nM | – | Cc1nnc2n1-c1sc(C#Cc3cnn(CCOCCNc4cccc5c4C(=O)N(C4CCC(=O)NC4=O)C5=O)c3)c(Cc3ccccc3)c1CO[C@H]2C (stereo partly drawn) [Cpd. No. 9, 4-((2-(2-(4-(((S)-3-benzyl-6,9-dimethyl-4H,6H-thieno[2,3-e][1,2,4]triazolo[3,4-c][1,4]oxazepin-2-yl)ethynyl)-1H-pyrazol-1-yl)ethoxy)ethyl)amino)-2-(2,6-dioxopiperidin-3-yl)isoindoline-1,3-dione]
16 | 2.6 nM | 34 nM | – | Cc1nnc2n1-c1sc(C#Cc3cnn(CCCNc4cccc5c4C(=O)N(C4CCC(=O)NC4=O)C5=O)c3)c(Cc3ccccc3)c1CO[C@H]2C (stereo partly drawn) [Cpd. No. 10, 4-((3-(4-(((S)-3-benzyl-6,9-dimethyl-4H,6H-thieno[2,3-e][1,2,4]triazolo[3,4-c][1,4]oxazepin-2-yl)ethynyl)-1H-pyrazol-1-yl)propyl)amino)-2-(2,6-dioxopiperidin-3-yl)isoindoline-1,3-dione]
17 | 2.8 nM | 2.4 nM | < 0.1 nM | Cc1nnc2n1-c1sc(C#Cc3ccc(CCCCNc4cccc5c4CN(C4CCC(=O)NC4=O)C5=O)nc3)c(Cc3ccccc3)c1COC2 (stereo not drawn) [Cpd. No. 46, 3-(4-((4-(5-((3-benzyl-9-methyl-4H,6H-thieno[2,3-e][1,2,4]triazolo[3,4-c][1,4]oxazepin-2-yl)ethynyl)pyridin-2-yl)butyl)amino)-1-oxoisoindolin-2-yl) piperidine-2,6-dione]
18 | 1.8 nM | 2.3 nM | < 0.1 nM | Cc1nnc2n1-c1sc(C#Cc3ccc(CCCCNc4cc(F)cc5c4CN(C4CCC(=O)NC4=O)C5=O)nc3)c(Cc3ccccc3)c1COC2 (stereo not drawn) [Cpd. No. 47, 3-(4-((4-(5-((3-benzyl-9-methyl-4H,6H-thieno[2,3-e][1,2,4]triazolo[3,4-c][1,4]oxazepin-2-yl)ethynyl)pyridin-2-yl)butyl)amino)-6-fluoro-1-oxoisoindolin-2-yl)piperidine-2,6-dione]
